These results are taken from patent US20240197911A1, “Oral Pharmaceutical Composition, Method for Fabricating Thereof, and Kit for Treating Cancer” (National Tsing Hua University, priority 2022, published 2024).

For data set [1], the system named is RAW264.7 cells. Briefly: Cellular uptake and trafficking by Mφ in vitro (CLSM). It is filed as cell-based, murine. The note with it: 10 μg/mL DOX. How it is done:
To investigate whether the oral pharmaceutical composition of the present disclosure can be phagocytosed and carried by Mφ, the cellular uptake and trafficking of free DOX, Comparative Example or Example 1 by Mφ in vitro are observed first. RAW264.7 cells, a murine Mφ cell line, are seeded in an eight-well chamber slide (ibidi) at a density of 5×10^4 cells per well and incubated overnight. The cells are then treated with each of the test samples at an equivalent dose of DOX (10 μg/mL). Following incubation for pre-determined periods (0, 2, 4, and 6 hours), test cells are washed with Dulbecco's phosphate-buffered saline (DPBS) and stained with LysoTracker™ Deep Red (Invitrogen) and Hoechst 33342 (Abcam) for 30 minutes in the incubator. The stained cells are then examined using confocal laser scanning microscopy (CLSM) (LSM 780, Carl Zeiss) to track the localization and accumulation of free DOX, the DOX fluorescent signal of Comparative Example or Example 1, and to determine the cell regulation process of free DOX, Comparative example and Example 1 in the RAW264.7 cells.

Data set [2] relates to RAW264.7 cells. Description: Cytotoxicity on Mφ. The note with it: different DOX concentrations, 24 hours. It is filed as cell-based, murine. How it is done:
The capacity of Mφ as a hitchhiking vehicle is strongly correlated with their viability following the uptake of drug-encapsulated particles. Therefore, the cytotoxicity of Example 1 on Mφ are further evaluated. The RAW264.7 cells are incubated with Comparative Example or Example 1 including different DOX concentrations for 24 hours, and the RAW264.7 cells treated with the same concentration of free DOX are used as Control (represents as “DOX”).

The next data set deals with orthotopic PDAC mice. Briefly: Antitumor efficacy of different treatments. It is filed as in vivo. The source says: To evaluate the antitumor efficacy of different treatments, the orthotopic PDAC mice are randomly assigned to the following groups: untreated control group (hereinafter referred to as “Control”), orally administered β-glucan group (hereinafter referred to as “βGlus”), intravenous injected DOX group (hereinafter referred to as “DOX”), orally administered Comparative Example group (hereinafter referred to as “Comparative Example”), and orally administered Example 1 group (hereinafter referred to as “Example 1”). In the groups of DOX, Comparative Example and Example 1, the DOX content of each dose is 10 mg/kg, while in the groups of βGlus and Example 1, the content of β-glucan of each dose is 40 mg/kg. The body weight changes of the orthotopic PDAC mice are recorded every other day. On day 21, the orthotopic PDAC mice are euthanized and their tumors are retrieved for analysis.

With `COc1cccc2c1C(=O)c1c(O)c3c(c(O)c1C2=O)C[C@@](O)(C(=O)CO)C[C@@H]3O[C@H]1C[C@H](N)[C@H](O)[C@H](C)O1` [DOX, doxorubicin], the “accumulation of DOX fluorescence in the cell nuclei” value with RAW264.7 cells [1] is “accumulated in their nuclei”. Also, the cell viability result with RAW264.7 cells [2] was “decreases substantially in a dose-dependent manner”. Further, the tumor volume result in the data set on orthotopic PDAC mice (day 21, three doses, DOX 10 mg/kg, β-glucan 40 mg/kg per dose, compared with Control) was “substantially reduces tumor volumes”. The body weight entry in the data set with orthotopic PDAC mice (intravenous DOX 10 mg/kg per dose, P<0.05) is on record as “serious loss of body weight”.
